Experimental data as given in ChEMBL document CHEMBL1201862, “PubChem BioAssay data set” (2004).
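Method: 48-hour compound exposure of cells in 96-well plates, five concentrations, linear interpolation of endpoints. The concentration for 50% growth inhibition is given as GI50.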 Calls of active or inactive are those of the source. Rule as the data show it: active = GI50 up to about 1.1 µM and inactive = higher. Where a SMILES comes first, the peptide text is derived from it. Peptide text beside a SMILES is read from it. [ ]: non-standard residue; d: D form. The star is where a group is joined. * marks the point of attachment. ξ: configuration not given here. NMeF = CN[C@@H](Cc1ccccc1)C(=O)O; NMeV = CN[C@H](C(=O)O)C(C)C; ξNMeN = CNC(CC(N)=O)C(=O)O; NMeA = CN[C@@H](C)C(=O)O; ξNMeV = CNC(C(=O)O)C(C)C; Boc = CC(C)(C)OC(=O)*; OBn = c1ccc(CO*)cc1; Bn = c1ccc(C*)cc1

Columns and labels:
Assay in all cases: DTP human tumour cell line panel, 48 h
CCRF-CEM = tested on: CCRF-CEM
DU-145 = tested on: DU-145
EKVX = tested on: EKVX
HOP-62 = tested on: HOP-62
Hs-578T = tested on: Hs-578T
NCI-H23 = tested on: NCI-H23
NCI-H522 = tested on: NCI-H522
NCI/ADR-RES = tested on: NCI/ADR-RES
OVCAR-3 = tested on: OVCAR-3
OVCAR-4 = tested on: OVCAR-4
OVCAR-8 = tested on: OVCAR-8
SF-539 = tested on: SF-539
SK-MEL-2 = tested on: SK-MEL-2
SK-MEL-5 = tested on: SK-MEL-5
SK-OV-3 = tested on: SK-OV-3
SNB-75 = tested on: SNB-75
SW-620 = tested on: SW-620
TK-10 = tested on: TK-10
UO-31 = tested on: UO-31
Malme-3M = tested on: Malme-3M

| Structure (SMILES) | GI50 (CCRF-CEM) | GI50 (DU-145) | GI50 (EKVX) | GI50 (HOP-62) | GI50 (Hs-578T) | GI50 (NCI-H23) | GI50 (NCI-H522) | GI50 (NCI/ADR-RES) | GI50 (OVCAR-3) | GI50 (OVCAR-4) | GI50 (OVCAR-8) | GI50 (SF-539) | GI50 (SK-MEL-2) | GI50 (SK-MEL-5) | GI50 (SK-OV-3) | GI50 (SNB-75) | GI50 (SW-620) | GI50 (TK-10) | GI50 (UO-31) | GI50 (Malme-3M) |
| --- | --- | --- | --- | --- | --- | --- | --- | --- | --- | --- | --- | --- | --- | --- | --- | --- | --- | --- | --- | --- |
| C#Cc1nc(N)c2ncn(C3OC(COS(N)(=O)=O)C(O)C3O)c2n1 (stereo unspecified) | < 0.0189 µM (active) | 0.0518 µM (active) | 0.262 µM (active) | 0.146 µM (active) | 0.0379 µM (active) | < 0.0164 µM (active) | < 0.01 µM (active) | < 0.0184 µM (active) | < 0.0194 µM (active) | < 0.0193 µM (active) | 0.0188 µM (active) | 0.0362 µM (active) | 0.0101 µM (active) | 0.0361 µM (active) | < 0.01 µM (active) | 0.02 µM (active) | < 0.0248 µM (active) | < 0.022 µM (active) | < 0.0187 µM (active) |  |
| CN1CCN2CCN(C)CCN(CC1)CC2 | > 100 µM (inactive) | > 100 µM (inactive) | > 100 µM (inactive) | > 100 µM (inactive) | > 100 µM (inactive) | > 100 µM (inactive) | > 100 µM (inactive) | > 100 µM (inactive) | > 100 µM (inactive) | > 100 µM (inactive) | > 100 µM (inactive) | > 100 µM (inactive) | > 100 µM (inactive) | > 100 µM (inactive) | > 100 µM (inactive) | > 100 µM (inactive) | > 100 µM (inactive) | > 100 µM (inactive) | > 100 µM (inactive) |  |
| CC(C)CC(NC(=O)C(CCC(=O)OCc1ccccc1)NC(=O)OC(C)(C)C)C(=O)NC(COCc1ccccc1)C(=O)NC(Cc1ccccc1)C(=O)O (stereo unspecified) (Boc-E(OBn)LS(Bn)F-OH; configuration not given here) |  |  | > 100 µM (inactive) | > 100 µM (inactive) | > 100 µM (inactive) | > 100 µM (inactive) |  |  |  |  | > 100 µM (inactive) |  | > 100 µM (inactive) | > 100 µM (inactive) |  | 96.8 µM (inactive) | > 100 µM (inactive) | > 100 µM (inactive) | > 100 µM (inactive) | 46.9 µM (inactive) |
| [O-][S+](Nc1ccccc1)c1ccc(N2CCOCC2)cc1 (stereo unspecified) | 54.2 µM (inactive) | 51.4 µM (inactive) | 94.6 µM (inactive) | > 100 µM (inactive) | > 100 µM (inactive) | > 100 µM (inactive) | 32.8 µM (inactive) | 51.9 µM (inactive) | > 100 µM (inactive) | > 100 µM (inactive) | > 100 µM (inactive) | 35.8 µM (inactive) | > 100 µM (inactive) | 39.8 µM (inactive) |  |  | 30.1 µM (inactive) | > 100 µM (inactive) | 10.8 µM (inactive) | 36.4 µM (inactive) |
| COC(=O)[C@H](C)N(C)C(=O)C(CC(N)=O)N(C)C(=O)[C@H](Cc1ccccc1)N(C)C(=O)[C@@H]1CCCN1C(=O)[C@H](C(C)C)N(C)C(=O)C(C(C)C)N(C)C(=O)[C@@H](NC(=O)OC(C)(C)C)C(C)C (stereo partly specified) (Boc-V[ξNMeV][NMeV]P[NMeF][ξNMeN][NMeA]-OMe) | 13.6 µM (inactive) | > 50 µM (inactive) | > 50 µM (inactive) | > 50 µM (inactive) |  | > 50 µM (inactive) | > 50 µM (inactive) | > 50 µM (inactive) | > 50 µM (inactive) | 38.5 µM (inactive) | 48.6 µM (inactive) | > 50 µM (inactive) | > 50 µM (inactive) | > 50 µM (inactive) | > 50 µM (inactive) | 44 µM (inactive) | > 50 µM (inactive) | > 50 µM (inactive) | > 50 µM (inactive) | > 75 µM (inactive) |
| N#CC(c1ccccc1)N(CCCCCCN(C(=O)c1ccccc1)C(C#N)c1ccccc1)C(=O)c1ccccc1 (stereo unspecified) | 49.8 µM (inactive) | 41.3 µM (inactive) | 50.4 µM (inactive) |  | 26.1 µM (inactive) | 26.2 µM (inactive) |  | 16 µM (inactive) | 39 µM (inactive) | 35 µM (inactive) | 30.1 µM (inactive) | 41.5 µM (inactive) | 23.6 µM (inactive) | 17.9 µM (inactive) | 41.4 µM (inactive) | 52.4 µM (inactive) | 39.3 µM (inactive) | 18.7 µM (inactive) | 18 µM (inactive) | 35.8 µM (inactive) |
| OC1(c2ccc(Cl)cc2)C(N2CCCC2)c2ccccc2C2=NCCN21 (stereo unspecified) | 17.6 µM (inactive) | 32.4 µM (inactive) | 26 µM (inactive) | 31.8 µM (inactive) | 29.9 µM (inactive) | 24.3 µM (inactive) |  | 18.6 µM (inactive) | 37.2 µM (inactive) | 20 µM (inactive) | 23.9 µM (inactive) | 18.5 µM (inactive) | 21.9 µM (inactive) | 15.1 µM (inactive) | 20.9 µM (inactive) |  | 20.3 µM (inactive) | 14.6 µM (inactive) | 33 µM (inactive) | 18.5 µM (inactive) |
| O=C1OCC(O)=C1C(c1ccc(Cl)cc1)c1cc2c(cc1O)OCO2 (stereo unspecified) | > 100 µM (inactive) | > 100 µM (inactive) | > 100 µM (inactive) | > 100 µM (inactive) | > 100 µM (inactive) |  |  | > 100 µM (inactive) | > 100 µM (inactive) | > 100 µM (inactive) |  | > 100 µM (inactive) | > 100 µM (inactive) | > 100 µM (inactive) | > 100 µM (inactive) | > 100 µM (inactive) | > 100 µM (inactive) | > 100 µM (inactive) | > 100 µM (inactive) | > 100 µM (inactive) |
| CC12CCC(CC(=O)/C1=C(/Br)I)C2(C)C (stereo unspecified) | 14.3 µM (inactive) | 17.7 µM (inactive) | 19.5 µM (inactive) | 17.9 µM (inactive) | 18.7 µM (inactive) | 13.5 µM (inactive) |  | 15.3 µM (inactive) | 13.6 µM (inactive) | 15.1 µM (inactive) | 17.8 µM (inactive) | 15.7 µM (inactive) | 13.7 µM (inactive) | 11.4 µM (inactive) | 20.7 µM (inactive) | 16.3 µM (inactive) | 17 µM (inactive) | 18.8 µM (inactive) | 18.2 µM (inactive) | 12.7 µM (inactive) |
| O=C(NCCC1([N+](=O)[O-])CCN(C(=O)c2ccccc2)CC1)c1ccccc1 | > 100 µM (inactive) | > 100 µM (inactive) | > 100 µM (inactive) |  | > 100 µM (inactive) | > 100 µM (inactive) | > 100 µM (inactive) | > 100 µM (inactive) |  | 52 µM (inactive) | > 100 µM (inactive) | > 100 µM (inactive) | > 100 µM (inactive) | 37.2 µM (inactive) | > 100 µM (inactive) |  | > 100 µM (inactive) | > 100 µM (inactive) | 55.2 µM (inactive) | 56.5 µM (inactive) |
| CC(Oc1ccc(Cl)cc1Cl)C(=O)NN1C(=O)CSC1c1ccc(Cl)cc1 (stereo unspecified) |  | 63.5 µM (inactive) | 80 µM (inactive) | 33.6 µM (inactive) | 64.7 µM (inactive) | 79.8 µM (inactive) | 93.1 µM (inactive) | > 100 µM (inactive) | 54.5 µM (inactive) | 35.3 µM (inactive) | 46.9 µM (inactive) | 20.5 µM (inactive) | 56.1 µM (inactive) | 49.7 µM (inactive) | 54.3 µM (inactive) | 27.9 µM (inactive) | > 100 µM (inactive) | 80.5 µM (inactive) | > 100 µM (inactive) |  |
| CC1CCCc2c(-c3ccc(Cl)cc3)nc(N)c(C#N)c21 (stereo unspecified) | 21.1 µM (inactive) | 39 µM (inactive) | 18.5 µM (inactive) | 19.2 µM (inactive) | 28.3 µM (inactive) | 30.4 µM (inactive) |  | 23.2 µM (inactive) | 29.5 µM (inactive) |  | 24.6 µM (inactive) | 25.5 µM (inactive) | 18.4 µM (inactive) | 18.3 µM (inactive) | 23.9 µM (inactive) | 11.7 µM (inactive) | 61.9 µM (inactive) | 43.7 µM (inactive) | 21.6 µM (inactive) | 24.4 µM (inactive) |
| CC(=O)NC(C)(C)C1CCC(C)CC1 (stereo unspecified) | > 100 µM (inactive) | > 100 µM (inactive) | > 100 µM (inactive) | > 100 µM (inactive) | 48.9 µM (inactive) | > 100 µM (inactive) |  | > 100 µM (inactive) | > 100 µM (inactive) | > 100 µM (inactive) | > 100 µM (inactive) | > 100 µM (inactive) |  | > 100 µM (inactive) | > 100 µM (inactive) | > 100 µM (inactive) | > 100 µM (inactive) | > 100 µM (inactive) | > 100 µM (inactive) | > 100 µM (inactive) |
| CC[C@H](C)C1=C(O)[N@+]2([O-])Oc3ccc(-c4c(O)c(O)c(-c5ccc(O)cc5)c(OC(C)=O)c4OC(C)=O)cc3O[C@]2([C@@H](C)CC)C(=O)N1O |  | 33.3 µM (inactive) | > 50 µM (inactive) | 30.1 µM (inactive) | 26.5 µM (inactive) | 47.3 µM (inactive) | 7.85 µM (inactive) | 16.5 µM (inactive) | 19.8 µM (inactive) | 11.6 µM (inactive) | 27 µM (inactive) | 18 µM (inactive) | > 50 µM (inactive) | 19 µM (inactive) | 15.9 µM (inactive) |  | 15.7 µM (inactive) | 24.3 µM (inactive) | 33.8 µM (inactive) | 21.3 µM (inactive) |
| CN(C)CCCNC1=C(Cl)C(=O)c2c(O)ccc(O)c2C1=O | 2.47 µM (inactive) | 1.82 µM (inactive) | 3.37 µM (inactive) | 2.61 µM (inactive) | 1.28 µM (inactive) | 1.65 µM (inactive) |  | 2.44 µM (inactive) | 2.24 µM (inactive) | 1.49 µM (inactive) | 3.27 µM (inactive) | 1.69 µM (inactive) |  | 1.5 µM (inactive) | > 10 µM (inactive) | 9.04 µM (inactive) | 1.82 µM (inactive) | 3.84 µM (inactive) | 6.04 µM (inactive) | 1.84 µM (inactive) |
